According to PubChem BioAssay (NCI):
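Growth conditions: 96-well plates. Treatment: test compound, 48 hours, 5 concentrations. Analysis: linear interpolation between bracketing concentrations; unreached endpoints set to highest concentration. GI50 = concentration required for 50% inhibition of growth. TGI marks complete inhibition of growth.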

Legend:
Assay in all cases: inhibition of tumour cell growth, NCI panel, 48 h
SK-MEL-2 melanoma = system: SK-MEL-2 melanoma
RPMI-8226 leukemia = system: RPMI-8226 leukemia
MDA-MB-231 breast = system: MDA-MB-231 breast
BT-549 breast = system: BT-549 breast
HCC-2998 colon = system: HCC-2998 colon
T-47D breast = system: T-47D breast
SN12C renal = system: SN12C renal
K-562 leukemia = system: K-562 leukemia
NCI-H226 lung = system: NCI-H226 lung
ACHN renal = system: ACHN renal
HOP-92 NSCLC = system: HOP-92 NSCLC
SK-OV-3 ovarian = system: SK-OV-3 ovarian
LOX IMVI melanoma = system: LOX IMVI melanoma
A549 NSCLC = system: A549 NSCLC
A498 renal = system: A498 renal
NCI/ADR-RES ovarian = system: NCI/ADR-RES ovarian
COLO 205 colon = system: COLO 205 colon
MCF7 breast = system: MCF7 breast
CCRF-CEM leukemia = system: CCRF-CEM leukemia
HCT-15 colon = system: HCT-15 colon
EKVX NSCLC = system: EKVX NSCLC
SK-MEL-28 melanoma = system: SK-MEL-28 melanoma
UO-31 renal = system: UO-31 renal
SF-268 CNS = system: SF-268 CNS
OVCAR-8 ovarian = system: OVCAR-8 ovarian
U251 CNS = system: U251 CNS
HT29 colon = system: HT29 colon
OVCAR-5 ovarian = system: OVCAR-5 ovarian
CAKI-1 renal = system: CAKI-1 renal
786-0 renal = system: 786-0 renal
OVCAR-4 ovarian = system: OVCAR-4 ovarian
SK-MEL-5 melanoma = system: SK-MEL-5 melanoma
DU-145 prostate = system: DU-145 prostate
NCI-H460 lung = system: NCI-H460 lung
TK-10 renal = system: TK-10 renal
NCI-H23 lung = system: NCI-H23 lung
SNB-75 CNS = system: SNB-75 CNS
HCT-116 colon = system: HCT-116 colon
IGROV1 ovarian = system: IGROV1 ovarian
SW-620 colon = system: SW-620 colon
KM12 colon = system: KM12 colon
NCI-H522 lung = system: NCI-H522 lung
SR leukemia = system: SR leukemia
SNB-19 CNS = system: SNB-19 CNS
PC-3 prostate = system: PC-3 prostate
MALME-3M melanoma = system: MALME-3M melanoma
HS 578T breast = system: HS 578T breast
HOP-62 NSCLC = system: HOP-62 NSCLC
MDA-MB-435 = system: MDA-MB-435
RXF 393 renal = system: RXF 393 renal
UACC-62 melanoma = system: UACC-62 melanoma
UACC-257 melanoma = system: UACC-257 melanoma
MOLT-4 leukemia = system: MOLT-4 leukemia
M14 melanoma = system: M14 melanoma
OVCAR-3 ovarian = system: OVCAR-3 ovarian
SF-295 CNS = system: SF-295 CNS
HL-60(TB) leukemia = system: HL-60(TB) leukemia
SF-539 CNS = system: SF-539 CNS

CCO/C=N/C1=C(C#N)C(c2ccc(Cl)cc2)c2sc3c(CC)cccc3c2O1 (stereo unspecified)
GI50 (SK-MEL-2 melanoma): 1.65 µM
TGI (SK-MEL-2 melanoma): 18.3 µM
GI50 (RPMI-8226 leukemia): 2.42 µM
TGI (RPMI-8226 leukemia): 14.4 µM
GI50 (MDA-MB-231 breast): 3.96 µM
TGI (MDA-MB-231 breast): 16.9 µM
GI50 (BT-549 breast): 2.64 µM
TGI (BT-549 breast): 16.5 µM
GI50 (HCC-2998 colon): 1.65 µM
TGI (HCC-2998 colon): 4.95 µM
GI50 (T-47D breast): 2.51 µM
TGI (T-47D breast): 15.5 µM
GI50 (SN12C renal): 3.03 µM
TGI (SN12C renal): 14.5 µM
GI50 (K-562 leukemia): 0.553 µM
TGI (K-562 leukemia): 20.6 µM
GI50 (NCI-H226 lung): 5.94 µM
TGI (NCI-H226 lung): 25.3 µM
GI50 (ACHN renal): 1.21 µM
TGI (ACHN renal): 15.4 µM
GI50 (HOP-92 NSCLC): 1.53 µM
TGI (HOP-92 NSCLC): 17.8 µM
GI50 (SK-OV-3 ovarian): 5.26 µM
TGI (SK-OV-3 ovarian): 21 µM
GI50 (LOX IMVI melanoma): 1.45 µM
TGI (LOX IMVI melanoma): 14.4 µM
GI50 (A549 NSCLC): 1.25 µM
TGI (A549 NSCLC): 17.2 µM
GI50 (A498 renal): 0.416 µM
TGI (A498 renal): 10.7 µM
GI50 (NCI/ADR-RES ovarian): 0.475 µM
TGI (NCI/ADR-RES ovarian): 3.14 µM
GI50 (COLO 205 colon): 3.36 µM
TGI (COLO 205 colon): 11.1 µM
GI50 (MCF7 breast): 0.475 µM
TGI (MCF7 breast): 10.7 µM
GI50 (CCRF-CEM leukemia): 1.66 µM
TGI (CCRF-CEM leukemia): 24.9 µM
GI50 (HCT-15 colon): 0.617 µM
TGI (HCT-15 colon): 10.6 µM
GI50 (EKVX NSCLC): 2.11 µM
TGI (EKVX NSCLC): 14.8 µM
GI50 (SK-MEL-28 melanoma): 4.04 µM
TGI (SK-MEL-28 melanoma): 20.4 µM
GI50 (UO-31 renal): 2.2 µM
TGI (UO-31 renal): 16 µM
GI50 (SF-268 CNS): 4.99 µM
TGI (SF-268 CNS): 21.1 µM
GI50 (OVCAR-8 ovarian): 2.77 µM
TGI (OVCAR-8 ovarian): 15.1 µM
GI50 (U251 CNS): 2.38 µM
TGI (U251 CNS): 13.5 µM
GI50 (HT29 colon): 2.39 µM
TGI (HT29 colon): 10.1 µM
GI50 (OVCAR-5 ovarian): 3.24 µM
TGI (OVCAR-5 ovarian): 14.4 µM
GI50 (CAKI-1 renal): 0.703 µM
TGI (CAKI-1 renal): 18 µM
GI50 (786-0 renal): 2.23 µM
TGI (786-0 renal): 14 µM
GI50 (OVCAR-4 ovarian): 4.79 µM
TGI (OVCAR-4 ovarian): 19.6 µM
GI50 (SK-MEL-5 melanoma): 4.19 µM
TGI (SK-MEL-5 melanoma): 16.4 µM
GI50 (DU-145 prostate): 2.49 µM
TGI (DU-145 prostate): 12.4 µM
GI50 (NCI-H460 lung): 1.74 µM
TGI (NCI-H460 lung): 14.2 µM
GI50 (TK-10 renal): 7.79 µM
TGI (TK-10 renal): 20.6 µM
GI50 (NCI-H23 lung): 2.56 µM
TGI (NCI-H23 lung): 13.1 µM
GI50 (SNB-75 CNS): 0.206 µM
TGI (SNB-75 CNS): 2.01 µM
GI50 (HCT-116 colon): 0.801 µM
TGI (HCT-116 colon): 12.5 µM
GI50 (IGROV1 ovarian): 0.702 µM
TGI (IGROV1 ovarian): 14.7 µM
GI50 (SW-620 colon): 0.71 µM
TGI (SW-620 colon): 16.9 µM
GI50 (KM12 colon): 0.876 µM
TGI (KM12 colon): 12.5 µM
GI50 (NCI-H522 lung): 0.433 µM
TGI (NCI-H522 lung): 4.57 µM
GI50 (SR leukemia): 0.651 µM
TGI (SR leukemia): 18.4 µM
GI50 (SNB-19 CNS): 1.9 µM
TGI (SNB-19 CNS): 13.9 µM
GI50 (PC-3 prostate): 0.788 µM
TGI (PC-3 prostate): 11.4 µM
GI50 (MALME-3M melanoma): 10.1 µM
TGI (MALME-3M melanoma): 22.6 µM
GI50 (HS 578T breast): 1.85 µM
TGI (HS 578T breast): 12.6 µM
GI50 (HOP-62 NSCLC): 4.78 µM
TGI (HOP-62 NSCLC): 23.6 µM
GI50 (MDA-MB-435): 0.307 µM
TGI (MDA-MB-435): 0.878 µM
GI50 (RXF 393 renal): 1.41 µM
TGI (RXF 393 renal): 5.57 µM
GI50 (UACC-62 melanoma): 0.596 µM
TGI (UACC-62 melanoma): 17.4 µM
GI50 (UACC-257 melanoma): 11.1 µM
TGI (UACC-257 melanoma): 26.1 µM
GI50 (MOLT-4 leukemia): 3.02 µM
TGI (MOLT-4 leukemia): 17 µM
GI50 (M14 melanoma): 1.21 µM
TGI (M14 melanoma): 11.7 µM
GI50 (OVCAR-3 ovarian): 0.813 µM
TGI (OVCAR-3 ovarian): 13.2 µM
GI50 (SF-295 CNS): 0.331 µM
TGI (SF-295 CNS): 1.27 µM
GI50 (HL-60(TB) leukemia): 1.34 µM
TGI (HL-60(TB) leukemia): 11.7 µM
GI50 (SF-539 CNS): 1.43 µM
TGI (SF-539 CNS): 3.6 µM
